According to publication PMC10873978, “Novel tetrahydroisoquinolines as DHFR and CDK2 inhibitors: synthesis, characterization, anticancer activity and antioxidant properties” (BMC Chemistry, 2024):
“Also recorded” adds a separate entry of the source.

What was measured:
[1] = tested on: MCF7 cell line; experiment: In vitro cytotoxic activity, MTT method, MCF7; assay type: cell-based, human; details: for IC50: Homo sapiens, MCF7, MCF7 cell line, MTT
Protocol: (§1) Cell lines: The in vitro human breast cancerous cell line (MCF7), lung cancerous cell lines (A549) and normal cell lines were purchased from Serum and Vaccine formulation in Cairo-Egypt.
(§2) In vitro cytotoxic activity of all synthesized compounds against two human breast cell line (MCF7) and lung cell lines (A549) was evaluated according to the MTT method. Firstly, Growth the cell line medium in 96 well tissue culture plate was injected with 10^5 cells/mL (100 uL/plate well) of the cell line and incubated at 37 °C for 24 h to develop a monolayer sheet then the formed growth medium was poured from 96 well microtiter plates after the confluent sheet of cells. […] Secondly, add 0.1 mL of each concentration tetrahydroisoquinoline sample to each plate. The plates were incubated at 37 °C. Thirdly MTT solution (5 mg/mL in PBS) is prepared. Add 20 µL of MTT solution to each well plates. And shaking in 150 rpm for 5 min, to mix the MTT into the media. Then incubate at (37 °C, 5% CO2) for 1–5 h. Finally read the optical density at 560 nm and subtract background at 620 nm.
(§3) In this work, doxorubicin was used as a positive control drug for comparison with the synthesized compounds under the same experimental conditions.

[2] = tested on: A549 cell line; experiment: In vitro cytotoxic activity, MTT method, A549; details: for IC50: Homo sapiens, read-out: IC50 ± SD
Protocol: as §1, §2, §3

[3] = DPPH scavenging antioxidant activity; details: for antioxidant activity compared with Vitamin C: DPPH
Protocol: The antioxidant activity of ten compounds was determined using DPPH [32–34]. A solution 1: prepared by dissolving DPPH (0.002 g) in ethanol (50 mL etnanol). Solution 2: prepared by dissolving different weights 0.05, 0.01 g of each sample in 1 mL of DMSO then take 10 µL of each sample solution with 1 mL ethanol. Then mix 1 mL of solution 1 with 1 mL of solution 2 then vortex the resulting mixture in the dark for about 30 min. The absorbance of the mixture was measured by spectrophotometer at λmax = 517 nm against blank 1 mL absolute ethanol and compared to the ascorbic acid (Vitamin C).
Ten newly synthesized compounds were studied as in vitro antioxidants by measuring of their DPPH scavenging activity which is represented as a percentage % [32]^. Results are represented by mean ± SD of three replicates. […] The higher dose concentration of 0.05 μg/mL represents higher antioxidant activity. […] The high antioxidant activity is referred to the presence of C=O, NH2, and OH groups like ascorbic acid which can be easily oxidized and reduced and can be used as antioxidant drugs. (Fig. 8 and Table 9).

`CC(=O)C1C(c2ccc(N(C)C)cc2)c2c(C)[nH]c(=S)c(C#N)c2CC1(C)O` (stereo not shown) [Compound 1, 7-Acetyl-4-cyano-1,6-dimethyl-6-hydroxy-8-(4-N,N-dimethylaminophenyl)-5,6,7,8-tetrahydroisoquinoline-3(2H)-thione] showed an IC50 [1] of 1.857 ± 0.008 µM, a Toxicity % ([1]; MCF7, 0.0487 µMol) of 0.2745% and a Viability % ([1]; MCF7, 0.0487 µMol) of 99.73%. For the same compound, the Toxicity % ([1]; MCF7, 0.0975 µMol) was 0.3246%, the Viability % ([1]; MCF7, 0.0975 µMol) was 99.68% and the Toxicity % ([1]; MCF7, 0.195 µMol) was 0.4493%. For the same compound, the Viability % ([1]; MCF7, 0.195 µMol) was 99.55%, the Viability % ([1]; MCF7, 0.391 µMol) was 91.95% and the Toxicity % ([1]; MCF7, 0.781 µMol) was 23.53%. The Viability % ([1]; MCF7, 0.781 µMol) was 76.47%, the Toxicity % ([1]; MCF7, 1.562 µMol) was 46.08% and the Viability % ([1]; MCF7, 1.562 µMol) was 53.92%. For the same compound, the Toxicity % ([1]; MCF7, 3.125 µMol) was 76.35%, the Viability % ([1]; MCF7, 3.125 µMol) was 23.65% and the Toxicity % ([1]; MCF7, 6.25 µMol) was 86.93%. For the same compound, the Viability % ([1]; MCF7, 6.25 µMol) was 13.07%, the Toxicity % ([1]; MCF7, 12.5 µMol) was 93.63% and the Viability % ([1]; MCF7, 12.5 µMol) was 6.373%. For the same compound, the Toxicity % ([1]; MCF7, 25 µMol) was 97.3%, the Viability % ([1]; MCF7, 25 µMol) was 2.696% and the Toxicity % ([2]; A549, Conc. 0.0487 µMol) was 1%. It also gave a Viability % ([2]; A549, Conc. 0.0487 µMol) of 99%, a Viability % ([2]; A549, Conc. 0.0975 µMol) of 98.2% and a Toxicity % ([2]; A549, Conc. 0.195 µMol) of 3%. It also gave a Viability % ([2]; A549, Conc. 0.195 µMol) of 97%, a Toxicity % ([2]; A549, Conc. 0.391 µMol) of 7.89% and a Viability % ([2]; A549, Conc. 0.391 µMol) of 92.11%. It also gave a Toxicity % ([2]; A549, Conc. 0.781 µMol) of 21.85%, a Viability % ([2]; A549, Conc. 0.781 µMol) of 78.15% and a Toxicity % ([2]; A549, Conc. 1.562 µMol) of 34.99%. The Viability % ([2]; A549, Conc. 1.562 µMol) was 65.01%, the Toxicity % ([2]; A549, Conc. 3.125 µMol) was 59.76% and the Viability % ([2]; A549, Conc. 3.125 µMol) was 40.24%. The Toxicity % ([2]; A549, Conc. 6.25 µMol) was 76.21%, the Viability % ([2]; A549, Conc. 6.25 µMol) was 23.79% and the Toxicity % ([2]; A549, Conc. 12.5 µMol) was 90.77%. The Viability % ([2]; A549, Conc. 12.5 µMol) was 9.231%, the Toxicity % ([2]; A549, Conc. 25 µMol) was 96.84% and the Viability % ([2]; A549, Conc. 25 µMol) was 3.156%. The IC50 [2] was 2.219 ± 0.002 µM, the “DPPH scavenging, inhibition (%)” value ([3]; 0.01 µg/mL) was 61.01 ± 0.58% and the “DPPH scavenging, inhibition (%)” value ([3]; 0.05 µg/mL) was 92.3 ± 0.44%. The “antioxidant activity compared with Vitamin C” value [3] was “higher result than Vitamin C; also recorded: higher antioxidant activity than Vitamin C”.
Work on `CSc1nc(C)c2c(c1C#N)CC(C)(O)C(C(C)=O)C2c1ccc(N(C)C)cc1` (stereo not shown) [Compound 3, 7-Acetyl-4-cyano-1,6-dimethyl-3-methylthio-6-hydroxy-8-(4-N,N-dimethyl-aminophenyl)-5,6,7,8-tetrahydroisoquinoline] yielded an IC50 [1] of 0.562 ± 0.007 µM, a Toxicity % ([1]; MCF7, 0.0487 µMol) of 5.124% and a Viability % ([1]; MCF7, 0.0487 µMol) of 94.876%. It also gave a Toxicity % ([1]; MCF7, 0.0975 µMol) of 7.124%, a Viability % ([1]; MCF7, 0.0975 µMol) of 92.876% and a Toxicity % ([1]; MCF7, 0.195 µMol) of 8.333%. It also gave a Viability % ([1]; MCF7, 0.195 µMol) of 91.67%, a Toxicity % ([1]; MCF7, 0.391 µMol) of 38.81% and a Viability % ([1]; MCF7, 0.391 µMol) of 61.19%. It also gave a Toxicity % ([1]; MCF7, 0.781 µMol) of 66.75%, a Viability % ([1]; MCF7, 0.781 µMol) of 33.25% and a Toxicity % ([1]; MCF7, 1.562 µMol) of 82.8%. It also gave a Viability % ([1]; MCF7, 1.562 µMol) of 17.2%, a Toxicity % ([1]; MCF7, 3.125 µMol) of 91.22% and a Viability % ([1]; MCF7, 3.125 µMol) of 8.783%. For the same compound, the Toxicity % ([1]; MCF7, 6.25 µMol) was 95.14%, the Viability % ([1]; MCF7, 6.25 µMol) was 4.861% and the Toxicity % ([1]; MCF7, 12.5 µMol) was 97.43%. It also gave a Viability % ([1]; MCF7, 12.5 µMol) of 2.574%, a Toxicity % ([1]; MCF7, 25 µMol) of 97.06% and a Viability % ([1]; MCF7, 25 µMol) of 2.941%. The Toxicity % ([2]; A549, Conc. 0.0487 µMol) was 0.30%, the Viability % ([2]; A549, Conc. 0.0487 µMol) was 99.700% and the Toxicity % ([2]; A549, Conc. 0.0975 µMol) was 0.50%. It also gave a Viability % ([2]; A549, Conc. 0.0975 µMol) of 99.50%, a Toxicity % ([2]; A549, Conc. 0.195 µMol) of 0.789% and a Viability % ([2]; A549, Conc. 0.195 µMol) of 99.21%. The Toxicity % ([2]; A549, Conc. 0.391 µMol) was 5.089%, the Viability % ([2]; A549, Conc. 0.391 µMol) was 94.91% and the Toxicity % ([2]; A549, Conc. 0.781 µMol) was 23.59%. For the same compound, the Viability % ([2]; A549, Conc. 0.781 µMol) was 76.41%, the Toxicity % ([2]; A549, Conc. 1.562 µMol) was 38.19% and the Viability % ([2]; A549, Conc. 1.562 µMol) was 61.81%. It also gave a Toxicity % ([2]; A549, Conc. 3.125 µMol) of 53.18%, a Viability % ([2]; A549, Conc. 3.125 µMol) of 46.82% and a Toxicity % ([2]; A549, Conc. 6.25 µMol) of 70.73%. The Viability % ([2]; A549, Conc. 6.25 µMol) was 29.27%, the Toxicity % ([2]; A549, Conc. 12.5 µMol) was 89.43% and the Viability % ([2]; A549, Conc. 12.5 µMol) was 10.57%. The Toxicity % ([2]; A549, Conc. 25 µMol) was 96.45%, the Viability % ([2]; A549, Conc. 25 µMol) was 3.55% and the IC50 [2] was 2.469 ± 0.006 µM. For the same compound, the “DPPH scavenging, inhibition (%)” value ([3]; 0.01 µg/mL) was 25.58 ± 2.20%, the “DPPH scavenging, inhibition (%)” value ([3]; 0.05 µg/mL) was 81.39 ± 3.87% and the “antioxidant activity compared with Vitamin C” value [3] was “higher result than Vitamin C; also recorded: higher antioxidant activity than Vitamin C”.
